Reference: patent US4150137A, “Pyridylalkyl esters of 2-(p-isobutylphenyl)acetic acid and propionic acids and use” (Hisamitsu Pharmaceutical Co. Inc., priority 1975, dated 1979)

What was measured:
[1] = system: writhing syndrome; experiment: Analgetic activity (acetic acid writhing syndrome); type: in vivo, mouse (dd-strain); conditions: Mus musculus, 1 h; oral, mice, 0.6% acetic acid i.p. one hour later; Litchfield-Wilcoxon; read-out: analgetic effect ED50 (95% C.L.)
Experimental: Each test compound suspended in 0.5% tragacanth-saline was orally administered to dd-strain mice(body weight: 18-20 g). After one hour 0.6% acetic acid solution was injected intraperitoneally in a volume of 0.1 ml/10 g.

[2] = system: carrageenin edema; experiment: Anti-inflammatory activity for oral route (carrageenin edema, hind paw); type: in vivo, rat (Wistar-strain); conditions: percent inhibition divided by that of ibuprofen, carrageenin edema after 3 hours; for anti-inflammatory effect, oral, 10 mg/kg (relative inhibition, ibuprofen = 1.0): 10 mg/kg oral; for anti-inflammatory effect, oral, 50 mg/kg (relative inhibition, ibuprofen = 1.0): 50 mg/kg oral
Experimental: After 30 minutes 0.5-1.0% carrageenin suspended in the water for injection was injected subcutaneously to a hind paw. After 3 hours the carrageenin edema was measured by volume, and the percent inhibition was determined with respect to the results for the control animals.

[3] = system: male mice of dd-strain; type: in vivo; conditions: death of animals 72 hours following administration
Experimental: Each test compound suspended in 0.5% tragacanth-saline was administered intraperitoneally or orally to male mice of dd-strain(body weight 16-24 g). The lethal dose was estimated from the death of animals 72 hours following administration.

[4] = system: carrageenin-induced leakage of the pigment, dorsal skin; experiment: Anti-inflammatory activity for topical route (carrageenin, leakage of pigment in dorsal skin); type: in vivo, rat (Wistar-strain); conditions: 1% in polyethylene glycol 300, percent inhibition divided by that of ibuprofen
Experimental: The dorsal skin of male rats of Wistar-strain(body weight: about 100 g) were depilated. Carrageenin suspension was injected intra-dermally at a dose of 250 γ/0.05 ml/site. […] Immediately after injection, the filter paper containing 125.2±18.0 mg of the polyethylene glycol was applied on the injected site. After 3 hours, 1% pontamine sky blue solution was injected intravenously at a dose of 0.5 ml/kg. After further 3 hours, the animals were sacrificed and their dorsal skin were removed to measure the area of leakage of the pigment. The percent inhibition was determined with respect to the results for the control animals.

| Compound | ED50 [1] [mg/kg] | anti-inflammatory effect, oral, 10 mg/kg (relative inhibition, ibuprofen = 1.0) [2] | anti-inflammatory effect, oral, 50 mg/kg (relative inhibition, ibuprofen = 1.0) [2] | acute toxicity, oral (lethal dose) [3] [mg/kg] | anti-inflammatory effect, topical (relative inhibition, ibuprofen = 1.0) [4] |
| --- | --- | --- | --- | --- | --- |
| CC(C)Cc1ccc(C(C)C(=O)OCC(F)(F)F)cc1 (centres unmarked) [Compound 9, 2-(p-isobutylphenyl)propionic acid-2,2,2-trifluoroethyl ester] | 135 | 0.8 | 1.3 | 1000 to 2000 | 3.6 |
| CC(C)Cc1ccc(C(C)C(=O)OCCO)cc1 (centres unmarked) [Compound 10] | 155 | 0.5 | 1.0 | > 2000 | 1.9 |
| COCOC(=O)C(C)c1ccc(CC(C)C)cc1 (centres unmarked) [Compound 12] | 174 | 1.0 | 1.2 | 500 to 1000 | 2.5 |
| CCOCOC(=O)C(C)c1ccc(CC(C)C)cc1 (centres unmarked) [Compound 13] | 155 | 1.3 | 1.0 | > 2000 | 2.8 |
| COCCOC(=O)C(C)c1ccc(CC(C)C)cc1 (centres unmarked) [Compound 14] | 406 | 0.4 | 1.2 | 1000 to 2000 | 1.2 |
| CCOCCOC(=O)C(C)c1ccc(CC(C)C)cc1 (centres unmarked) [Compound 15] | 156 | 0.7 | 0.9 | > 2000 | 1.2 |
| CC(C)Cc1ccc(C(C)C(=O)OCCOCCO)cc1 (centres unmarked) [Compound 16] | 151 |  | 0.9 | > 2000 | 2.3 |
| CC(=O)OCCOC(=O)C(C)c1ccc(CC(C)C)cc1 (centres unmarked) [Compound 18] | 308 | 0.7 | 1.1 | > 2000 | 2.2 |
| CCOC(=O)COC(=O)C(C)c1ccc(CC(C)C)cc1 (centres unmarked) [Compound 19] | 180 | 0.5 | 0.7 | > 2000 | 1.9 |
